In brackets after ≈: the same amount, converted by molar mass. Read-outs that look alike come from different tables or passages of the source.
Columns and labels:
[1] = Serum binding by ultrafiltration; format: in vitro ADME; settings: pig, porcine serum, 8 mcg/ml, read-out: % bound to pig serum (converted)
Procedure: Serum binding was assessed by ultrafiltration of porcine serum containing compounds at 8 mcg/ml, and through an Amicon CF50A ultrafiltration cone. Separation of ultrafiltrate was achieved by centrifugation. Unbound concentrations of compound were measured in the ultrafiltrate by microbiological assay (B. subtilis ATCC 6633) against standards prepared in saline.

M. suipneumoniae MS16 = experiment: Anti-mycoplasmal activity in vitro MIC; format: cell-based; settings: Mesomycoplasma hyopneumoniae
M. hyorhinis ATCC 25021 = experiment: Anti-mycoplasmal activity in vitro MIC; format: cell-based; settings: Mesomycoplasma hyorhinis, ATCC25021, 144 h
[2] = system: M. suipneumoniae ATCC 25095; experiment: Anti-mycoplasmal activity in vitro MIC; format: cell-based; settings: Mesomycoplasma hyopneumoniae, ATCC25095, 144 h
[3] = system: M. bovigenitalium ATCC 14173; experiment: Anti-mycoplasmal activity in vitro MIC; format: cell-based; settings: 144 h
M. suipneumoniae LABER = experiment: Anti-mycoplasmal activity in vitro MIC; format: cell-based; settings: Mesomycoplasma hyopneumoniae, 144 h
[4] = system: M. suipneumoniae PW/C/210; experiment: Anti-mycoplasmal activity in vitro MIC; format: cell-based; settings: Mesomycoplasma hyopneumoniae, 144 h
M. suipneumoniae UCD 1 = experiment: Anti-mycoplasmal activity in vitro MIC; format: cell-based; settings: Mesomycoplasma hyopneumoniae, UCD1, 144 h
M. hyorhinis ATCC 23234 = experiment: Anti-mycoplasmal activity in vitro MIC; format: cell-based; settings: Mesomycoplasma hyorhinis, ATCC23234, 144 h
M. dispar NCTC 10125 = experiment: Anti-mycoplasmal activity in vitro MIC; format: cell-based; settings: 144 h
M. suipneumoniae TAM 6N = experiment: Anti-mycoplasmal activity in vitro MIC; format: cell-based; settings: Mesomycoplasma hyopneumoniae, TAM6N, 144 h
[5] = system: M. suipneumoniae NCTC 10110; experiment: Anti-mycoplasmal activity in vitro MIC; format: cell-based; settings: Mesomycoplasma hyopneumoniae, NCTC10110, 144 h
K. aerogenes A = experiment: Human bacteria MIC; format: cell-based; settings: Klebsiella aerogenes; K. aerogenes A; nutrient agar, 5% chocolated horse blood, 18 hours 37° C.; read-out: M.I.C.
Procedure: (§1) The values were determined by serial dilutions in nutrient agar with 5% chocolated horse blood after incubations for 18 hours at 37° C.

E. coli ESS = experiment: Human bacteria MIC; format: cell-based; settings: Escherichia coli
Procedure: as §1

Bacillus subtilis 6633 = experiment: Human bacteria MIC; format: cell-based
Procedure: as §1

P. mirabilis 889 = experiment: Human bacteria MIC; format: cell-based; settings: Proteus mirabilis; P. mirabilis 889; nutrient agar, 5% chocolated horse blood, 18 hours 37° C.; read-out: M.I.C.
Procedure: as §1

Strep. Group C 64/848 = experiment: Human bacteria MIC; format: cell-based
Procedure: as §1

Staph. aureus W2827 = experiment: Human bacteria MIC; format: cell-based; settings: Staphylococcus aureus; Staph. aureus W2827; nutrient agar, 5% chocolated horse blood, 18 hours 37° C.; read-out: M.I.C.
Procedure: as §1

Staph. aureus Russell = experiment: Human bacteria MIC; format: cell-based; settings: Staphylococcus aureus; Staph. aureus Russell; nutrient agar, 5% chocolated horse blood, 18 hours 37° C.; read-out: M.I.C.
Procedure: as §1

Strep. pyogenes R80/421 = experiment: Human bacteria MIC; format: cell-based; settings: Streptococcus pyogenes; Strep. pyogenes R80/421; nutrient agar, 5% chocolated horse blood, 18 hours 37° C.; read-out: M.I.C.
Procedure: as §1

Strep. pneumoniae CN33 = experiment: Human bacteria MIC; format: cell-based; settings: Streptococcus pneumoniae; Strep. pneumoniae CN33; nutrient agar, 5% chocolated horse blood, 18 hours 37° C.; read-out: M.I.C.
Procedure: as §1

Ps. aeruginosa 10662 = experiment: Human bacteria MIC; format: cell-based; settings: Pseudomonas aeruginosa; Ps. aeruginosa 10662; nutrient agar, 5% chocolated horse blood, 18 hours 37° C.; read-out: M.I.C.
Procedure: as §1

E. Coli NCT 10418 = experiment: Human bacteria MIC; format: cell-based; settings: Escherichia coli; E. Coli NCT 10418; nutrient agar, 5% chocolated horse blood, 18 hours 37° C.; read-out: M.I.C.
Procedure: as §1

[6] = system: Haemophilus influenzae Wy21; experiment: Human bacteria MIC; format: cell-based; settings: Haemophilus influenzae Wy21; nutrient agar, 5% chocolated horse blood, 18 hours 37° C.; read-out: M.I.C.
Procedure: as §1

M. suipneumoniae NB12 = experiment: Anti-mycoplasmal activity in vitro MIC; format: cell-based; settings: Mesomycoplasma hyopneumoniae
M. pneumoniae ATCC 15492 = experiment: Anti-mycoplasmal activity in vitro MIC; format: cell-based; settings: Mycoplasmoides pneumoniae, ATCC15492, 144 h
Sarcina lutea 8340 = experiment: Human bacteria MIC; format: cell-based; settings: Micrococcus luteus; Sarcina lutea 8340; nutrient agar, 5% chocolated horse blood, 18 hours 37° C.; read-out: M.I.C.
Procedure: as §1

[7] = M. suipneumoniae ATCC 25095, Friis broth, 0.9% agarose, 6 days 37° C., read-out: M.I.C.
[8] = M. suipneumoniae UCD 1, Friis broth, 0.9% agarose, 6 days 37° C., read-out: M.I.C.
[9] = M. suipneumoniae TAM 6N, Friis broth, 0.9% agarose, 6 days 37° C., read-out: M.I.C.
[10] = M. suipneumoniae NCTC 10110, Friis broth, 0.9% agarose, 6 days 37° C., read-out: M.I.C.
[11] = E. coli ESS, nutrient agar, 5% chocolated horse blood, 18 hours 37° C., read-out: M.I.C.
[12] = Bacillus subtilis 6633, nutrient agar, 5% chocolated horse blood, 18 hours 37° C., read-out: M.I.C.
[13] = Strep. Group C 64/848, nutrient agar, 5% chocolated horse blood, 18 hours 37° C., read-out: M.I.C.
[14] = 144 h, M. suipneumoniae NB12, Friis broth, 0.9% agarose, 6 days 37° C., read-out: M.I.C.
[15] = M. pneumoniae ATCC 15492, Friis broth, 0.9% agarose, 6 days 37° C., read-out: M.I.C.

Row | SMILES | fraction unbound [1] | MIC (M. hyorhinis ATCC 25021) | MIC [2, 7] | MIC [3] | MIC (M. suipneumoniae UCD 1; [8]) | MIC (M. hyorhinis ATCC 23234) | MIC (M. dispar NCTC 10125) | MIC (M. suipneumoniae TAM 6N; [9]) | MIC [5, 10] | MIC (K. aerogenes A) | MIC (E. coli ESS; [11]) | MIC (Bacillus subtilis 6633; [12]) | MIC (P. mirabilis 889) | MIC (Strep. Group C 64/848; [13]) | MIC (Staph. aureus W2827) | MIC (Staph. aureus Russell) | MIC (Strep. pyogenes R80/421) | MIC (Strep. pneumoniae CN33) | MIC (Ps. aeruginosa 10662) | MIC (E. Coli NCT 10418) | further results
1 | C/C(=C\C(=O)OCCCC(=NO)c1ccccc1)C[C@@H]1OC[C@H](C[C@@H]2O[C@H]2[C@@H](C)[C@H](C)O)[C@@H](O)[C@H]1O [Example 1, 4-Hydroxyimino-4-phenylbutyl monate A] | < 0.08 | 0.1 µg/mL (≈ 0.198 µM) | 0.25 µg/mL (≈ 0.494 µM) | 0.025 µg/mL (≈ 0.0494 µM) | 0.25 µg/mL (≈ 0.494 µM) | 0.1 µg/mL (≈ 0.198 µM) | 0.05 µg/mL (≈ 0.0989 µM) | 0.25 µg/mL (≈ 0.494 µM) | 0.25 µg/mL (≈ 0.494 µM) | > 100 µg/mL | 2.5 µg/mL (≈ 4.94 µM) | 1 µg/mL (≈ 1.98 µM) | > 100 µg/mL | 2.5 µg/mL (≈ 4.94 µM) | 2.5 µg/mL (≈ 4.94 µM) | 2.5 µg/mL (≈ 4.94 µM) | 2.5 µg/mL (≈ 4.94 µM) | 0.5 µg/mL (≈ 0.989 µM) | > 100 µg/mL | > 100 µg/mL | MIC (M. suipneumoniae MS16; 144 h, M. suipneumoniae MS16, Friis broth, 0.9% agarose, 6 days 37° C., read-out: M.I.C.): 0.1 µg/mL (≈ 0.198 µM); MIC (M. suipneumoniae LABER; M. suipneumoniae LABER, Friis broth, 0.9% agarose, 6 days 37° C., read-out: M.I.C.): 0.1 µg/mL (≈ 0.198 µM); MIC ([4]; M. suipneumoniae PW/C/210, Friis broth, 0.9% agarose, 6 days 37° C., read-out: M.I.C.): 0.1 µg/mL (≈ 0.198 µM); MIC [6]: 0.5 µg/mL (≈ 0.989 µM); MIC (M. suipneumoniae NB12; [14]): 0.1 µg/mL (≈ 0.198 µM); MIC (M. pneumoniae ATCC 15492; [15]): 2.5 µg/mL (≈ 4.94 µM)
2 | C/C(=C\C(=O)OCCCC(=NNC(N)=O)c1ccccc1)C[C@@H]1OC[C@H](C[C@@H]2O[C@H]2[C@@H](C)[C@H](C)O)[C@@H](O)[C@H]1O [Example 2, 4-Phenyl-4-semicarbazonobutyl monate A] | < 0.159 | 0.25 µg/mL (≈ 0.456 µM) | – | 0.1 µg/mL (≈ 0.183 µM) | – | 0.25 µg/mL (≈ 0.456 µM) | 0.1 µg/mL (≈ 0.183 µM) | – | – | > 100 µg/mL | 5 µg/mL (≈ 9.13 µM) | 2.5 µg/mL (≈ 4.56 µM) | > 100 µg/mL | 5 µg/mL (≈ 9.13 µM) | 10 µg/mL (≈ 18.3 µM) | 10 µg/mL (≈ 18.3 µM) | 2.5 µg/mL (≈ 4.56 µM) | 1 µg/mL (≈ 1.83 µM) | 100 µg/mL (≈ 183 µM) | > 100 µg/mL | MIC (M. suipneumoniae MS16; MS16, 144 h): 0.25 µg/mL (≈ 0.456 µM); MIC [2]: 0.25 µg/mL (≈ 0.456 µM); MIC (M. suipneumoniae LABER): 0.25 µg/mL (≈ 0.456 µM); MIC [4]: 0.25 µg/mL (≈ 0.456 µM); MIC (M. suipneumoniae UCD 1): 0.5 µg/mL (≈ 0.913 µM); MIC (M. suipneumoniae TAM 6N): 0.5 µg/mL (≈ 0.913 µM); MIC [5]: 0.5 µg/mL (≈ 0.913 µM); MIC [6]: 1 µg/mL (≈ 1.83 µM); MIC (M. suipneumoniae NB12; NB12, 144 h): 0.25 µg/mL (≈ 0.456 µM); MIC (M. pneumoniae ATCC 15492; [15]): 2.5 µg/mL (≈ 4.56 µM)
3 | C/C(=C\C(=O)OC1CCC(=NO)CC1)C[C@@H]1OC[C@H](C[C@@H]2O[C@H]2[C@@H](C)[C@H](C)O)[C@@H](O)[C@H]1O (stereo partly drawn) [Example 3, 4-Hydroxyiminocyclohexyl monate A] | 0.355 | 0.25 µg/mL (≈ 0.549 µM) | 0.5 µg/mL (≈ 1.1 µM) | 0.025 µg/mL (≈ 0.0549 µM) | 0.5 µg/mL (≈ 1.1 µM) | 0.25 µg/mL (≈ 0.549 µM) | 0.1 µg/mL (≈ 0.22 µM) | 0.5 µg/mL (≈ 1.1 µM) | 0.5 µg/mL (≈ 1.1 µM) | > 100 µg/mL | – | – | > 100 µg/mL | – | 5 µg/mL (≈ 11 µM) | 5 µg/mL (≈ 11 µM) | 0.5 µg/mL (≈ 1.1 µM) | 0.5 µg/mL (≈ 1.1 µM) | > 100 µg/mL | > 100 µg/mL | MIC (M. suipneumoniae MS16; MS16, 144 h): 0.25 µg/mL (≈ 0.549 µM); MIC (M. suipneumoniae LABER): 0.25 µg/mL (≈ 0.549 µM); MIC [4]: 0.25 µg/mL (≈ 0.549 µM); MIC (E. coli ESS; 18 h): 1 µg/mL (≈ 2.2 µM); MIC (Bacillus subtilis 6633; Bacillus subtilis, 6633, 18 h): 1 µg/mL (≈ 2.2 µM); MIC (Sarcina lutea 8340): > 100 µg/mL; MIC (Strep. Group C 64/848; 18 h): 1 µg/mL (≈ 2.2 µM); MIC (M. suipneumoniae NB12; [14]): 0.5 µg/mL (≈ 1.1 µM); MIC (M. pneumoniae ATCC 15492): 1 µg/mL (≈ 2.2 µM)

From patent publication US4362743A, “Antibacterial monic acid esters” (Beecham Group Limited, priority 1980, dated 1982)
